18 compounds from PMC10955571 (ACS Omega, 2024) can be followed below.

For one data set, the target named is BACE-1 (Homo sapiens, UniProt P56817). The data set is described as follows: BACE-1 FRET inhibition assay. In kind it is biochemical.
The target of the next data set is Human AChE (Homo sapiens, UniProt P22303). The data set is described as follows: AChE inhibition, Ellman assay. It counts as biochemical. On the technique in general: In Ellman's method for cholinesterases, released thiocholine reacts with DTNB.
For a further data set, the target named is Aβ1–42 (Homo sapiens, UniProt P05067). The data set is described as follows: Inhibition of Aβ1–42 self-induced aggregation, Thioflavin-T fluorometric assay. In kind it is biochemical. As to conditions: read-out: % inhibition of Aβ1–42 aggregation at 10 μM, 10 μM compound.
A further data set is described as follows: PAMPA-BBB permeability. The following applies: for Papp at 5 h, 200 μM: PAMPA, pH 7.4. In general terms: PAMPA measures passive passage across an artificial lipid membrane.
Data set [1] relates to scopolamine-induced memory impairment in mice. The data set is described as follows: Morris water maze test, scopolamine-induced memory impairment. It counts as in vivo, Swiss albino mice. As to conditions: MWM, one animal from each group; for time taken by the animals to reach the platform, after the training (5th day): basal reading before any treatment; for time taken by the animals to reach the platform, after treatment with the test compound/donepezil (11th day): before scopolamine; for time taken by the animals to reach the platform, after treatment with the test compound/donepezil (11th day) / time taken by the animals to reach the platform, after treatment with scopolamine (14th day): compounds 10 mg/kg, donepezil 3 mg/kg; for time taken by the animals to reach the platform, after treatment with scopolamine (14th day): scopolamine 2 mg/kg i.p. days 12-14.

The next data set in a line: Plasma stability assay. It counts as in vitro ADME.

As usually defined, the IC50 is the concentration needed to halve the response being measured. Low readings indicate inhibition by little substance, high ones a need for much substance. Usually inhibition stands for the change of the read-out against control, counted positive when it falls. By Papp is commonly meant the rate of passage across a membrane or cell layer, normalised by area and donor concentration.

Where a SMILES comes first, the peptide text is derived from it. The star is where a group is joined. Isobutyryl = CC(C)C(=O)*; Cbz = O=C(OCc1ccccc1)*; OAll = C=CCO* Where only a bound is given, the exact number is not on record here.

Chain of Aβ1–42 (P05067 672-713): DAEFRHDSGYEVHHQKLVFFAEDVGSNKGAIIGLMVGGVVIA
Chain of BACE-1 (P56817 46-501): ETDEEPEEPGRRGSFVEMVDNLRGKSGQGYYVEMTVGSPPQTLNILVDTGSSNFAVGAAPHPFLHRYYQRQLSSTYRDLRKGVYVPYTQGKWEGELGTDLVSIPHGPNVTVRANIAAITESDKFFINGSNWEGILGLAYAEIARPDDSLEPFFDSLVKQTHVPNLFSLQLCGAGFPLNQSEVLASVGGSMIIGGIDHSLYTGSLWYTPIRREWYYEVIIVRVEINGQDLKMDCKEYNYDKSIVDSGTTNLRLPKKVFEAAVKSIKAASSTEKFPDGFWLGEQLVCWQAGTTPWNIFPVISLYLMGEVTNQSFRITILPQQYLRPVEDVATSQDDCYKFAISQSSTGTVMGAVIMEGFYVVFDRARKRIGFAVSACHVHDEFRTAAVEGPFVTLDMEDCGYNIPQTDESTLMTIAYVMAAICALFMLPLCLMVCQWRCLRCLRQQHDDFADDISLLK
Chain of Human AChE (P22303 32-614): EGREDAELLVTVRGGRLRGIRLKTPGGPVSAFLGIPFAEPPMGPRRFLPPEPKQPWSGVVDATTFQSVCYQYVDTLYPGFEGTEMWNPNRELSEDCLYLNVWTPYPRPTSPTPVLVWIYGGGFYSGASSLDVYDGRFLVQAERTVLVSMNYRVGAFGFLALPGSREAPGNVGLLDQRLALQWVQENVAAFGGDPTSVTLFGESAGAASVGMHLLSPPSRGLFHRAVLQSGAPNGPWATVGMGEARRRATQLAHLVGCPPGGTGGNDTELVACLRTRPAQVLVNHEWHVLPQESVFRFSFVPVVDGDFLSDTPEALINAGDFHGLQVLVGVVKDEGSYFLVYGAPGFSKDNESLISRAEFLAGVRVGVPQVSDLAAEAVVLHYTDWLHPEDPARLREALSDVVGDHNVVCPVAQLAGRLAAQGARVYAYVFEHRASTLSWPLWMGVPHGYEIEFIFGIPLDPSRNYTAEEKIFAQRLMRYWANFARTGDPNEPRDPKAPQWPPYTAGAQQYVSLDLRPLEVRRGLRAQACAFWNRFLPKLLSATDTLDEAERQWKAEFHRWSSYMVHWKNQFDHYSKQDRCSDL

Turning to `CC(C)C(=O)NCC(=O)N1CCC[C@H]1C(=O)N[C@@H](C)C(=O)O` [Compound 14, Isobut-Gly-Pro-Ala-OH] (Isobutyryl-Gly-Pro-Ala-OH), the values for the concentration for half-maximal inhibition (IC50) on BACE-1 and at Human AChE were 0.6 ± 0.05 µM and 8 ± 1.2 µM, respectively.

In the case of `C(=C\n1nncc1COc1ccc2ccccc2c1-c1c(OCc2cnnn2/C=C/Cc2ccccc2)ccc2ccccc12)/Cc1ccccc1` [Compound 33, 2,2′-Bis((1-((E)-3-phenylprop-1-en-1-yl)-1H-1,2,3-triazol-5-yl)methoxy)-1,1′-binaphthalene], the IC50 at BACE-1 stood at 1 ± 0.1 µM; on Human AChE, 7 ± 1.4 µM. Moreover, the inhibition at 10 µM at Aβ1–42 turned out to be 43.2 ± 4.7%. The compound further yielded an apparent permeability (Papp) at 5 h, 200 μM in “PAMPA-BBB permeability” of 1.59 ×10⁻⁶ cm/s.

On to `CC(C)=CCC/C(C)=C/COC(=O)[C@H](C)NC(=O)[C@@H]1CCCN1C(=O)CNC(=O)C(C)C` [Compound 18, Isobut-Gly-Pro-Ala-O-Geranyl], for which 20 ± 2 µM corresponded to half-maximal inhibition against BACE-1 (IC50). The compound also came in with a half-inhibitory concentration (IC50) against Human AChE of 7 ± 1.3 µM. In addition, the inhibition at 10 µM on Aβ1–42 came out at 12.5 ± 2.1%. Besides, in data set [1], the “time taken by the animals to reach the platform, after the training (5th day)” value (from here on “time taken by the animals … (5th day)”) came to 5 s; the “time taken by the animals to reach the platform, after treatment with the test compound/donepezil (11th day)” value is recorded as 5 s; the “time taken by the animals to reach the platform, after treatment with scopolamine (14th day)” value (shortened to “time taken by the animals … (14th day)”) is 71 s. Moreover, in “PAMPA-BBB permeability”, the Papp at 5 h, 200 μM came out at 3.17 ×10⁻⁶ cm/s.

For the compound `COC(=O)[C@H](C)NC(=O)[C@@H]1CCCN1C(=O)CNC(=O)C(C)C` [Compound 13, Isobut-Gly-Pro-Ala-OMe] (Isobutyryl-Gly-Pro-Ala-OMe), the IC50 was determined as 0.2 ± 0.03 µM against BACE-1 and 7 ± 1 µM at Human AChE. Besides, the inhibition at 10 µM at Aβ1–42 is 36.3 ± 4.3%.

Take `C=CCOC(=O)[C@H](C)NC(=O)[C@@H]1CCCN1C(=O)CNC(=O)OCc1ccccc1` [Compound 23, Cbz-Gly-Pro-Ala-O-Allyl] (Cbz-Gly-Pro-Ala-OAll): the IC50 against BACE-1 worked out at 1 ± 0.2 µM; on Human AChE, 0.8 ± 0.1 µM.

Turning to `COC(=O)[C@H](C)NC(=O)[C@@H]1CCCN1C(=O)CN` [Compound 30, NH2-Gly-Pro-Ala-OMe] (H-Gly-Pro-Ala-OMe), the midpoint of inhibition against BACE-1, the IC50, lay at 0.02 ± 0.001 µM. The IC50 against Human AChE is 2 ± 1.1 µM. Further, the inhibition at 10 µM on Aβ1–42 stood at 33.7 ± 4.2%. In addition, in data set [1], the “time taken by the animals … (5th day)” value came to 20 s; the “time taken by the animals to reach the platform, after treatment with the test compound/donepezil (11th day)” value is reported as 12 s; the “time taken by the animals … (14th day)” value amounted to 65 s. Further, the Papp at 5 h, 200 μM in the data set “PAMPA-BBB permeability” came to 8.98 ×10⁻⁶ cm/s.

Consider `COC(=O)[C@H](C)NC(=O)[C@@H]1CCCN1C(=O)CNC(=O)OCc1ccccc1` [Compound 21, Cbz-Gly-Pro-Ala-OMe] (Cbz-Gly-Pro-Ala-OMe), for which the values for the 50% inhibitory concentration (IC50) against BACE-1 and at Human AChE were 30 ± 4.1 µM and 1000 ± 9.5 µM, respectively. Further, the “IC50 AChE” value against Human AChE (Ellman assay, mean ± SEM) is listed as “millimolar range”.

Regarding `CC(C)=CCOC(=O)[C@H](C)NC(=O)[C@@H]1CCCN1C(=O)CNC(=O)C(C)C` [Compound 16, Isobut-Gly-Pro-Ala-O-dimethylallyl], the IC50 against BACE-1 stood at 0.2 ± 0.01 µM; at Human AChE it was 1 ± 0.1 µM.

Take `Cn1c(=O)c2c(ncn2C)n(C)c1=O` [caffeine, reference compound]: the “Pe (PAMPA-BBB)” value in the data set “PAMPA-BBB permeability” (200 μM in PBS pH 7.4, 5 h, room temperature) was 10.9 × 10^–6 cm s^–1. In “PAMPA-BBB permeability”, this compound displayed a Papp at 5 h, 200 μM of 10.9 ×10⁻⁶ cm/s.

In the case of `COc1cc2c(cc1OC)C(=O)C(CC1CCN(Cc3ccccc3)CC1)C2` (stereo not shown) [donepezil, reference compound], the inhibition at 10 µM on Aβ1–42 came to 10.9 ± 1.4%. Besides, in data set [1], the “time taken by the animals … (5th day)” value is recorded as 15 s; the “time taken by the animals to reach the platform, after treatment with the test compound/donepezil (11th day)” value was 17 s; the “time taken by the animals … (14th day)” value turned out to be 10 s.

In the data set “PAMPA-BBB permeability”, `CCn1cc(C(=O)O)c(=O)c2cc(F)c(N3CCNCC3)cc21` [norfloxacin, reference compound] displayed a Papp at 5 h, 200 μM of 1.73 ×10⁻⁶ cm/s.

`C=CCOC(=O)[C@H](C)NC(=O)[C@@H]1CCCN1C(=O)CNC(=O)C(C)C` [Compound 15, Isobut-Gly-Pro-Ala-O-allyl] (Isobutyryl-Gly-Pro-Ala-OAll) yielded an IC50 against BACE-1 of 0.05 ± 0.001 µM. Further, on Human AChE, 0.05 ± 0.01 µM corresponded to half-maximal inhibition (IC50). Further, at Aβ1–42, the inhibition at 10 µM was above 50%. In data set [1], the “time taken by the animals … (5th day)” value is 11 s; the “time taken by the animals to reach the platform, after treatment with the test compound/donepezil (11th day)” value was 11 s; the “time taken by the animals … (14th day)” value amounted to 93 s. Besides, the Papp at 5 h, 200 μM in the data set “PAMPA-BBB permeability” stood at 1.8 ×10⁻⁶ cm/s.

As to `CC(C)=CCC/C(C)=C/COC(=O)[C@H](C)NC(=O)[C@@H]1CCCN1C(=O)CNC(=O)OCc1ccccc1` [Compound 26, Cbz-Gly-Pro-Ala-O-Geranyl], 0.1 ± 0.01 µM corresponded to half-maximal inhibition against BACE-1 (IC50). The IC50 against Human AChE came out at 0.7 ± 0.1 µM. At Aβ1–42, the inhibition at 10 µM came to 31.8 ± 3.2%. In data set [1], the “time taken by the animals … (5th day)” value stood at 7 s; the “time taken by the animals to reach the platform, after treatment with the test compound/donepezil (11th day)” value was found to be 39 s; the “time taken by the animals … (14th day)” value came to 45 s.

Regarding `C[C@H](NC(=O)[C@@H]1CCCN1C(=O)CNC(=O)OCc1ccccc1)C(=O)OC/C=C/c1ccccc1` [Compound 25, Cbz-Gly-Pro-Ala-O-cinnamyl], the IC50 at BACE-1 came out at 0.02 ± 0.001 µM. The compound also yielded an IC50 against Human AChE of 1 ± 0.2 µM. Besides, the inhibition at 10 µM at Aβ1–42 was above 50%. In data set [1], the “time taken by the animals … (5th day)” value is on record as 20 s; the “time taken by the animals to reach the platform, after treatment with the test compound/donepezil (11th day)” value stood at 15 s; the “time taken by the animals … (14th day)” value is recorded as 15 s. Further, in the data set “Plasma stability assay” (50 μM in plasma pH 7–8, 37 °C, 12 h incubation), the “change in the concentration in plasma” value is listed as around 10%. In addition, the “effect of plasma on the half-life time” value in the data set “Plasma stability assay” (50 μM in plasma, 37 °C) is recorded as “no remarkable effect on the half-life time”. The apparent permeability coefficient (Papp) at 5 h, 200 μM in the data set “PAMPA-BBB permeability” was 17.8 ×10⁻⁶ cm/s.

As for `CC(C)=CCOC(=O)[C@H](C)NC(=O)[C@@H]1CCCN1C(=O)CNC(=O)OCc1ccccc1` [Compound 24, Cbz-Gly-Pro-Ala-O-dimethylallyl], the results for the IC50 against BACE-1 and against Human AChE were 20 ± 2.3 µM and 0.6 ± 0.03 µM, respectively.

Turning to `C[C@H](NC(=O)[C@@H]1CCCN1C(=O)CNC(=O)OCc1ccccc1)C(=O)O` [Compound 22, Cbz-Gly-Pro-Ala-OH] (Cbz-Gly-Pro-Ala-OH), the IC50 is 0.3 ± 0.02 µM at BACE-1 and 0.1 ± 0.01 µM on Human AChE.

For the compound `CC(C)C(=O)NCC(=O)N1CCC[C@H]1C(=O)N[C@@H](C)C(=O)OC/C=C/c1ccccc1` [Compound 17, Isobut-Gly-Pro-Ala-O-Cinnamyl], the IC50 amounted to 0.1 ± 0.01 µM against BACE-1 and 0.9 ± 0.1 µM on Human AChE. The compound further came in with an apparent permeability (Papp) at 5 h, 200 μM in the data set “PAMPA-BBB permeability” of 3.64 ×10⁻⁶ cm/s.

As for `CN1[C@@H]2C[C@@H](OC(=O)[C@H](CO)c3ccccc3)C[C@H]1[C@@H]1O[C@@H]12` [scopolamine, reference compound], in data set [1], the “time taken by the animals … (14th day)” value was 77 s.
